According to patent publication US4596790A, “Peptides for the treatment of hyperglycaemia” (Nyegaard & Co. A/S, priority 1983, dated 1986):
Non-standard residues stand in square brackets, D forms with d. Residues, ends and D or L forms follow the SMILES beside them. No end group written: not given here. pGlu = O=C1CC[C@@H](C(=O)O)N1

How the values were obtained:
pancreatic β-cells = test: insulin releasing activity (potentiation of the insulin releasing activity of glucose); details: qualitative ranking among the compounds prepared
[1] = reported in the literature; cited from earlier work

| Compound | activity (insulin releasing) (pancreatic β-cells) | hyperglycaemic and hyperinsulinaemic activity [1] |
| --- | --- | --- |
| O=C(O)CNC(=O)[C@H](CC(=O)O)NC(=O)[C@H](CC(=O)O)NC(=O)[C@@H]1CCC(=O)N1 [p-Glu-Asp-Asp-Gly, H-L-(PYRO) GLUTAMYL-L-ASPARTYL-L-ASPARTYL-GLYCINE] (HELM PEPTIDE1{[Glp].D.D.G}$$$$V2.0) | Especially active | – |
| NC(=O)CC[C@H](NC(=O)[C@@H]1CCC(=O)N1)C(=O)N[C@@H](CC(=O)O)C(=O)NCC(=O)O [p-Glu-Gln-Asp-Gly, H-L-(PYRO) GLUTAMYL-L-GLUTAMINYL-L-ASPARTYL-GLYCINE] (HELM PEPTIDE1{[Glp].Q.D.G}$$$$V2.0) | most active | – |
| O=C(O)CC[C@H](NC(=O)[C@@H]1CCC(=O)N1)C(=O)N[C@@H](CC(=O)O)C(=O)NCC(=O)O [p-Glu-Glu-Asp-Gly, H-L-(PYRO) GLUTAMYL-L-GLUTAMYL-L-ASPARTYL-GLYCINE] (HELM PEPTIDE1{[Glp].E.D.G}$$$$V2.0) | Especially active | – |
| [pGlu]SDG | – | hyperglycaemic and hyperinsulinaemic activity |
